In ChEMBL document CHEMBL3885861, “Open TG-GATES”:

Species on record: Rattus norvegicus
Test: Open TG-GATES - Regimen: Daily Repeat
Type: toxicity, organism-based, Sprague-Dawley
Set-up: regimen Daily Repeat, gender Male, age 6 weeks
Settings: in vivo, po, 100 mg/kg, route gavage, dose level Low; for APTT / Bas / Eos / Fbg / Hb / Ht / Lym / MCH / MCHC / MCV / Mono / Neu / PT / Plat / RBC / Ret / WBC: tissue Blood; for KIDNEY_L / KIDNEY_R / KIDNEY_TOTAL: tissue Kidney; for LIVER: tissue Liver; for A/G / ALP / ALT / AST / BUN / CRE / Ca / Cl / DBIL / GLC / IP / K / LDH / Na / PL / RALB / TBIL / TC / TG / TP / gamma-GTP: tissue Plasma

## COc1ccc(Cl)cc1C(=O)NCCc1ccc(S(=O)(=O)NC(=O)NC2CCCCC2)cc1 [GLYBURIDE]
72 h, time 3 day
  TERMINAL_BW: 227.4 g
  APTT: 20.1 s
  Bas: 0%
  Eos: 1%
  Fbg: 222.4 mg/dL
  Hb: 13.6 g/dL
  Ht: 40.3%
  Lym: 83%
  MCH: 21.4 pg
  MCHC: 33.6%
  MCV: 63.7 fL
  Mono: 2.6%
  Neu: 12.8%
  PT: 12.2 s
  Plat: 115.5 x10_4/uL
  RBC: 632.6 x10_4/ul
  Ret: 5.2%
  WBC: 104.4 x10_2/uL
  KIDNEY_L: 1 g
  KIDNEY_R: 1 g
  KIDNEY_TOTAL: 1.9 g
  LIVER: 10.6 g
  A/G: 1.7
  ALP: 952 IU/L
  ALT: 42 IU/L
  AST: 65.4 IU/L
  BUN: 15 mg/dL
  CRE: 0.4 mg/dL
  Ca: 10.9 mg/dL
  Cl: 103 meq/L
  DBIL: 0.1 mg/dL
  GLC: 187.8 mg/dL
  IP: 6.9 mg/dL
  K: 3.8 meq/L
  LDH: 183.6 IU/L
  Na: 141.6 meq/L
  PL: 153.8 mg/dL
  RALB: 3.5 g/dL
  TBIL: 0.1 mg/dL
  TC: 75.4 mg/dL
  TG: 113 mg/dL
  TP: 5.6 g/dL
  gamma-GTP: 1.4 IU/L
[…], time 7 day
  TERMINAL_BW: 265.1 g
  APTT: 19.7 s
  Bas: 0.2%
  Eos: 0.8%
  Fbg: 223 mg/dL
  Hb: 13 g/dL
  Ht: 38.5%
  Lym: 79.4%
  MCH: 21 pg
  MCHC: 33.7%
  MCV: 62.3 fL
  Mono: 3%
  Neu: 16.4%
  PT: 12.5 s
  Plat: 124.6 x10_4/uL
  RBC: 618 x10_4/ul
  Ret: 5.6%
  WBC: 123.7 x10_2/uL
  KIDNEY_L: 1.1 g
  KIDNEY_R: 1.1 g
  KIDNEY_TOTAL: 2.2 g
  LIVER: 12.7 g
  A/G: 1.5
  ALP: 816.2 IU/L
  ALT: 35.2 IU/L
  AST: 60.2 IU/L
  BUN: 15.8 mg/dL
  CRE: 0.4 mg/dL
  Ca: 11 mg/dL
  Cl: 102.4 meq/L
  DBIL: 0.1 mg/dL
  GLC: 196 mg/dL
  IP: 7.3 mg/dL
  K: 4.1 meq/L
  LDH: 155.2 IU/L
  Na: 140.6 meq/L
  PL: 151.8 mg/dL
  RALB: 3.4 g/dL
  TBIL: 0.2 mg/dL
  TC: 78.4 mg/dL
  TG: 116.4 mg/dL
  TP: 5.7 g/dL
  gamma-GTP: 1.2 IU/L
[…], time 14 day
  TERMINAL_BW: 301.6 g
  APTT: 19.3 s
  Bas: 0%
  Eos: 1%
  Fbg: 224.6 mg/dL
  Hb: 14.3 g/dL
  Ht: 40.2%
  Lym: 78%
  MCH: 21 pg
  MCHC: 35.6%
  MCV: 59.2 fL
  Mono: 2.2%
  Neu: 17.8%
  PT: 12.3 s
  Plat: 122 x10_4/uL
  RBC: 679.6 x10_4/ul
  Ret: 3.9%
  WBC: 137.4 x10_2/uL
  KIDNEY_L: 1.1 g
  KIDNEY_R: 1.2 g
  KIDNEY_TOTAL: 2.3 g
  LIVER: 13 g
  A/G: 1.4
  ALP: 1042 IU/L
  ALT: 37 IU/L
  AST: 63.6 IU/L
  BUN: 15.2 mg/dL
  CRE: 0.5 mg/dL
  Ca: 10.7 mg/dL
  Cl: 102.2 meq/L
  DBIL: 0.1 mg/dL
  GLC: 193.2 mg/dL
  IP: 6.4 mg/dL
  K: 3.9 meq/L
  LDH: 138.2 IU/L
  Na: 140.2 meq/L
  PL: 166.4 mg/dL
  RALB: 3.5 g/dL
  TBIL: 0.2 mg/dL
  TC: 81.2 mg/dL
  TG: 116.8 mg/dL
  TP: 6 g/dL
  gamma-GTP: 0.6 IU/L
[…], time 28 day
  TERMINAL_BW: 376.3 g
  APTT: 23 s
  Bas: 0%
  Eos: 0.8%
  Fbg: 207.8 mg/dL
  Hb: 15.2 g/dL
  Ht: 43.5%
  Lym: 82.6%
  MCH: 19.3 pg
  MCHC: 34.9%
  MCV: 55.4 fL
  Mono: 2.4%
  Neu: 13.4%
  PT: 12.7 s
  Plat: 105.5 x10_4/uL
  RBC: 786.4 x10_4/ul
  Ret: 2.6%
  WBC: 115.6 x10_2/uL
  KIDNEY_L: 1.3 g
  KIDNEY_R: 1.3 g
  KIDNEY_TOTAL: 2.6 g
  LIVER: 15.8 g
  A/G: 1.4
  ALP: 594 IU/L
  ALT: 33.6 IU/L
  AST: 58.4 IU/L
  BUN: 14.6 mg/dL
  CRE: 0.5 mg/dL
  Ca: 10.4 mg/dL
  Cl: 103.6 meq/L
  DBIL: 0.09 mg/dL
  GLC: 213.6 mg/dL
  IP: 6.4 mg/dL
  K: 3.9 meq/L
  LDH: 147 IU/L
  Na: 141 meq/L
  PL: 137.4 mg/dL
  RALB: 3.4 g/dL
  TBIL: 0.2 mg/dL
  TC: 69 mg/dL
  TG: 98.8 mg/dL
  TP: 5.8 g/dL
  gamma-GTP: 1.4 IU/L
